Data reported in ChEMBL document CHEMBL1201862, “PubChem BioAssay data set” (2004).
The source made the active and inactive calls.

Experiments:
[1] = molecular target: T1, Replicative DNA helicase DnaB (Mycobacterium tuberculosis, UniProt P9WMR3); test: DnaB intein splicing inhibitors, dose response, biochemical, cell-free fluorescence (AID 449749); format: functional
T1 sequence (P9WMR3 whole entry): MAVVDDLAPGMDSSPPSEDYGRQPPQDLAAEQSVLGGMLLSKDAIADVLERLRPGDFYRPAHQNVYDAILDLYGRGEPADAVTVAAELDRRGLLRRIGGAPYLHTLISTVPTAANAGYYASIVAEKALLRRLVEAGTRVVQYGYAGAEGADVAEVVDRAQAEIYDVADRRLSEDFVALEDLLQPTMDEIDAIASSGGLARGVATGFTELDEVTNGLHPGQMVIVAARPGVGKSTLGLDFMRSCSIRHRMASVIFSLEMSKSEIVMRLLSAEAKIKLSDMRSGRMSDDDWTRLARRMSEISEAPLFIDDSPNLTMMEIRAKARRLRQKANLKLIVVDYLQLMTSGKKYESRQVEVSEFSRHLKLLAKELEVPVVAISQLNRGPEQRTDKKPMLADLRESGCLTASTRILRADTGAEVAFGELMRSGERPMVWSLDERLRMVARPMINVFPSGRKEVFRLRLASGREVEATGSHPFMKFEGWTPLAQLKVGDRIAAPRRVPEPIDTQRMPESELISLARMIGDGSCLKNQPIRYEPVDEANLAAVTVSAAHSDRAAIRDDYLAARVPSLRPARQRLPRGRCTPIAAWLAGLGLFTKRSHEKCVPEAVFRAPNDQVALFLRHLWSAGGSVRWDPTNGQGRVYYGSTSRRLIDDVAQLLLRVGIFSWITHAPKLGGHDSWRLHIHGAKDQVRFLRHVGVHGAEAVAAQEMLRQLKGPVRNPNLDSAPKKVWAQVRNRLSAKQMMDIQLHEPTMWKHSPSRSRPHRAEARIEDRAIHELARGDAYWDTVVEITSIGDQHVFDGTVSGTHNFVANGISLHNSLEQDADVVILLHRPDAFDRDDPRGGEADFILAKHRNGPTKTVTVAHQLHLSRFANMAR

Protein RecA = molecular target: T2, Protein RecA (Mycobacterium tuberculosis, UniProt P9WHJ3); test: Fluorescence Cell-Free Homogeneous Dose Retest to Identify Inhibitors of RecA-Intein Splicing Activity. [Related pubchem assays (depositor defined):AID2097, AID2223, AID489010, AID492950]; format: functional
T2 sequence (P9WHJ3 whole entry): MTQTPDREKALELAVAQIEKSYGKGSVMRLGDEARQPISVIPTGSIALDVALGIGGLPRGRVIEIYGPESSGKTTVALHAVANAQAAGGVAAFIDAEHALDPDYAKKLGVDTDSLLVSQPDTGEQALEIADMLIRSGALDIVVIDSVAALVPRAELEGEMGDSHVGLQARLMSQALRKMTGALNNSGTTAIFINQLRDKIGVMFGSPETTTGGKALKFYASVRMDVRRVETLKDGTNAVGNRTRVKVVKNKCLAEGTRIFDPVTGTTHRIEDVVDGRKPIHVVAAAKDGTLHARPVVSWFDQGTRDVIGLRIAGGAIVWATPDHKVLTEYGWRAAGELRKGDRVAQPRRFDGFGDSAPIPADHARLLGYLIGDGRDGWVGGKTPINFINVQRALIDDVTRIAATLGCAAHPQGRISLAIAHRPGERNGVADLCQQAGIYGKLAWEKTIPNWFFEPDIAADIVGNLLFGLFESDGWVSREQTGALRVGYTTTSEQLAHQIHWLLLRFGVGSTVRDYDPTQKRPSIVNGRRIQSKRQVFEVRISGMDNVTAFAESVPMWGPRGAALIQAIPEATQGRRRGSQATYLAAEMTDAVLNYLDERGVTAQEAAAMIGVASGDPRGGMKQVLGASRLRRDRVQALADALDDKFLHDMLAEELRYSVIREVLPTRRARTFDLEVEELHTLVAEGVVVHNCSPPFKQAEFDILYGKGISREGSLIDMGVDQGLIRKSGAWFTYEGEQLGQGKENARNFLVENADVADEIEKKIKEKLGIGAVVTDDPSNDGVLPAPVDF

[2] = molecular target: T3, Rac GTPase-activating protein 1 (Homo sapiens, UniProt Q9H0H5); test: MgcRacGAP GTPase-activating activity inhibitors, confirmation, biochemical, ADP Hunter fluorescence, primary and confirmatory (AID 624330); format: functional
T3 sequence (Q9H0H5 whole entry): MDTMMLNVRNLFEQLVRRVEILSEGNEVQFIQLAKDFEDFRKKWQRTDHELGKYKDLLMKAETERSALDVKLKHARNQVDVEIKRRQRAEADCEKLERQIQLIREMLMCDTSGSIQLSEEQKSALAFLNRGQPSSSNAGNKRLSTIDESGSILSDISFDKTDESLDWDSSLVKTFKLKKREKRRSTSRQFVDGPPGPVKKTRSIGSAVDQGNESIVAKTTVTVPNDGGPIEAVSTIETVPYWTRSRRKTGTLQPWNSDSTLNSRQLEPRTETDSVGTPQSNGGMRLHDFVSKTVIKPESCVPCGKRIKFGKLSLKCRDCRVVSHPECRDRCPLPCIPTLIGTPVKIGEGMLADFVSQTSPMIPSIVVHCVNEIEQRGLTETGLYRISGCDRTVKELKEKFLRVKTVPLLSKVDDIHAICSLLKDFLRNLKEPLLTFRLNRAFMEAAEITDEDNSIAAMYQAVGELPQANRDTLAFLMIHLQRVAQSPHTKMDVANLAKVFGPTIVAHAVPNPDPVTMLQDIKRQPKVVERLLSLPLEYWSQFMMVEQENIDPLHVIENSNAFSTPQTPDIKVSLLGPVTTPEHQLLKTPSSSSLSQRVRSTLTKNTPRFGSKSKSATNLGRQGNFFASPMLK

[3] = molecular target: T4, Corticotropin-releasing factor receptor 2/Corticotropin-releasing factor-binding protein (Homo sapiens, UniProt P24387+Q13324); test: Dose Response confirmation of uHTS hits for small molecule antagonists of the CRF-binding protein and CRF-R2 receptor complex.; format: functional; details: read-out: IC50_Mean
T4 sequence (Q13324 whole entry): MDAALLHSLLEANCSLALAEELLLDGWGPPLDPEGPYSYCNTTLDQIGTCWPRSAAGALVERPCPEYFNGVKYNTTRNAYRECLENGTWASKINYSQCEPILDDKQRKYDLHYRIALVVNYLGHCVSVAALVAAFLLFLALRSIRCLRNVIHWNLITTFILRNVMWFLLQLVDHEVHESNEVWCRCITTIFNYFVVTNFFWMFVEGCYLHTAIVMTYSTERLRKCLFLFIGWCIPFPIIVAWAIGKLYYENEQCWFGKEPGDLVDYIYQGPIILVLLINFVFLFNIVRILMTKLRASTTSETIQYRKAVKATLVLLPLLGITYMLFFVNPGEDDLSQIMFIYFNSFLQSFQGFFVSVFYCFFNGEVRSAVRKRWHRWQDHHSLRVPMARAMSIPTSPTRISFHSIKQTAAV
T4 sequence (P24387 whole entry): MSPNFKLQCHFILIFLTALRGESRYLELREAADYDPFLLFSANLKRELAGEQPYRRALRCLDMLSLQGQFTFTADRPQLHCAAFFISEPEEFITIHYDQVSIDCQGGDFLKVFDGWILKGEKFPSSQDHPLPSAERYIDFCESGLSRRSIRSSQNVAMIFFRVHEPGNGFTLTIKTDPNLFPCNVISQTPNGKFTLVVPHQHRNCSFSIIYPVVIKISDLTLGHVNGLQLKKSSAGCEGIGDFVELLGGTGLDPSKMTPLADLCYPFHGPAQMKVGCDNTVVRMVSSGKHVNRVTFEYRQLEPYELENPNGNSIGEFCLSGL

[4] = molecular target: T4, Corticotropin-releasing factor receptor 2/Corticotropin-releasing factor-binding protein; test: activators of CRF receptor 2 with binding protein – uHTS hits, confirmation (AID 602473); format: functional; details: read-out: EC50_Mean
Cytochrome P450 3A4 = Cytochrome P450 3A4 (Homo sapiens, UniProt P08684);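 also: CYP3A4 tested as one member of a cytochrome P450 panel screen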
Cytochrome P450 2C9 = Cytochrome P450 2C9 (Homo sapiens, UniProt P11712)
Streptococcus = test: Group A Streptococcus viability loss, dose response, counter-screen for streptokinase expression inhibitor project, luminescence, BacTiterGlo (AID 1915); format: functional, organism-based;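 also: potency for reduction of bacterial viability or growth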
[5] = system: Streptococcus sp. 'group A'; test: growth inhibition of control SK(-) GAS strain, dose response, counter-screen for streptokinase expression inhibitor project, luminescence, kanamycin, BacTiterGlo, confirmation (AID 1900); format: functional, organism-based
Streptokinase A = molecular target: T5, Streptokinase A (Streptococcus pyogenes serotype M1, UniProt P10520); test: S. pyogenes streptokinase expression inhibitors, potency, dose response, plasminogen activation absorbance, OD405 (AID 1914); format: functional, Streptococcus pyogenes M1 GAS;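 also: secreted streptokinase activity via plasminogen activation per viability signal from cell pellet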
T5 sequence (P10520 whole entry): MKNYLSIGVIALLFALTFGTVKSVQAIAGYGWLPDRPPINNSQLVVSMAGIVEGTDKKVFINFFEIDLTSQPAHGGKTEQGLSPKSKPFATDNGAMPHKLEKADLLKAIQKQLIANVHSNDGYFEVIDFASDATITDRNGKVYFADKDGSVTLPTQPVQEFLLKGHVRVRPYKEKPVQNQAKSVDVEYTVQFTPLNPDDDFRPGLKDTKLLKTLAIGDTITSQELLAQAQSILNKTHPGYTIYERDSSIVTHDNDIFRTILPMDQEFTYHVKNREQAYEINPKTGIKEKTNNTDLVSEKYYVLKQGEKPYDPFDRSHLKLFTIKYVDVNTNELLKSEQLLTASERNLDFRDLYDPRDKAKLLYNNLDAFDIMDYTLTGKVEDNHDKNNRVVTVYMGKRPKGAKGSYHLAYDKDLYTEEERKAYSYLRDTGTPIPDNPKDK

Cytochrome P450 2C19 = Cytochrome P450 2C19 (Homo sapiens, UniProt P33261); test: Cytochrome panel assay with activity outcomes. Panel member name: p450-cyp2c19 Compounds with AC50 equal or less than 10 uM are considered active; format: functional; details: read-out: AC50
Cytochrome P450 2C19, sequence (P33261 whole entry): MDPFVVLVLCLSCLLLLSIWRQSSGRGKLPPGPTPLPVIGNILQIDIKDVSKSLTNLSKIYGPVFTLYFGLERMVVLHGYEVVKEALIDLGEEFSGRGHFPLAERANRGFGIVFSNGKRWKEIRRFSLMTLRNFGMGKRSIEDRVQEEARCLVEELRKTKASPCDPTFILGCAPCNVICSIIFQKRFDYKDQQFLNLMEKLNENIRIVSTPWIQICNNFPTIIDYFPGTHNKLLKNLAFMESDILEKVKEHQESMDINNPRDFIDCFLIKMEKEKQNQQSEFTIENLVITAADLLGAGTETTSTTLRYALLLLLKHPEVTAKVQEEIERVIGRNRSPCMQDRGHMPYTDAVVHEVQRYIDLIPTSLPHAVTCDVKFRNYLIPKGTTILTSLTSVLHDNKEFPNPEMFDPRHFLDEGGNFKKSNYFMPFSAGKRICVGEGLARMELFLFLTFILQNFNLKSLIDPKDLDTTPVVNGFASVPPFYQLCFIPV

Cytochrome P450 2C9, sequence (P11712 whole entry): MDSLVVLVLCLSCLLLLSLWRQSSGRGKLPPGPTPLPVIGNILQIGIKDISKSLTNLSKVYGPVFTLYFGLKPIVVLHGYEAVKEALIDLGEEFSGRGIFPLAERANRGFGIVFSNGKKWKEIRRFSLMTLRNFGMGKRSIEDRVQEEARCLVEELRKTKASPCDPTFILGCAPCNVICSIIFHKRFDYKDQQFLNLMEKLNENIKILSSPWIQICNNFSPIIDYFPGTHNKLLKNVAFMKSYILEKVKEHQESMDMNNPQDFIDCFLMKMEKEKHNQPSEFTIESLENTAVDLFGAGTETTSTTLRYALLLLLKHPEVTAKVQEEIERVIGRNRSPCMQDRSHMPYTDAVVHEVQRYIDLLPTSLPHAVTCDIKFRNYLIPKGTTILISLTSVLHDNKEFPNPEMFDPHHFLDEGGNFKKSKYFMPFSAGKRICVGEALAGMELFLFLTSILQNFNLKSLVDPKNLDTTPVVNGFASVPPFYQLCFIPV
Cytochrome P450 3A4, sequence (P08684 whole entry): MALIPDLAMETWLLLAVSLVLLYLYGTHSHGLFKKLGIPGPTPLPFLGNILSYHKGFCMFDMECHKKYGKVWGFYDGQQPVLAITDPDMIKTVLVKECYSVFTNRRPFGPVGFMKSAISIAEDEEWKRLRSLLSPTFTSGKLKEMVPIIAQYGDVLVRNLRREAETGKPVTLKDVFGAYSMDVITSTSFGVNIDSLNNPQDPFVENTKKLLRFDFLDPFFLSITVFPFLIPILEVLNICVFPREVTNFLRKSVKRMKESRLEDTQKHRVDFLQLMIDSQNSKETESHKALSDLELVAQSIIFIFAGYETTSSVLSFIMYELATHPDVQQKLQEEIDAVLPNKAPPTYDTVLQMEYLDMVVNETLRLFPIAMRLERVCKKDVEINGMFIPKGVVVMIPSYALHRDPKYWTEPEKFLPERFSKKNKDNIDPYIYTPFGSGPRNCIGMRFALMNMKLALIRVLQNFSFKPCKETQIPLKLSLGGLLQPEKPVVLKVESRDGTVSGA

CCCc1n[nH]c2c1C(c1c[nH]nc1-c1ccc(F)cc1)C(C#N)=C(N)O2 (centres undefined)
AC50 [1]: 2.08 µM (active) | EC50 (Protein RecA): 1.54 µM (active)

COc1ccc(CN2CCN(CCCCOc3ccc(Cl)cc3)CC2)c(OC)c1OC
IC50 [2]: 71.4 µM (active)

COc1ccc(C2c3c(-c4ccccc4O)n[nH]c3C(=O)N2Cc2ccco2)cc1 (centres undefined)
IC50 [3]: > 47.1 µM (inactive) | EC50 [4]: > 53 µM (inactive)

Cc1cc(-c2[nH]nc3c2C(c2ccsc2)C(C#N)=C(N)O3)c(C)s1 (centres undefined)
AC50 [1]: 3.47 µM (active) | EC50 (Protein RecA): 1.2 µM (active)

CCN(CC(=O)NCc1ccc(F)cc1)C(=O)CN1CCN(c2ccc(OC)cc2)CC1
IC50 [2]: 42.3 µM (active)

CC1CN(CCCCN2C(=O)c3ccccc3C2=O)CC(C)O1 (centres undefined)
IC50 [2]: 125 µM (active)

O=c1c2ccccc2nc2n1C(CSc1ccc(F)cc1)CN2 (centres undefined)
AC50 (Cytochrome P450 3A4): 31.6 µM (inconclusive) | AC50 (Cytochrome P450 2C9): 39.8 µM (inconclusive)

Cc1sc2ncnc(Sc3ccccc3C(=O)Nc3ccc(C#N)cc3)c2c1C
IC50 [3]: > 47.1 µM (inactive) | EC50 [4]: > 53 µM (inactive)

Cc1cccc(NC(=O)C2CC2c2ccccc2)c1C (centres undefined)
EC50 [4]: > 53 µM (inactive)

Cc1ccc(-c2noc(-c3cc4ccccc4oc3=O)n2)cc1
AC50 (Cytochrome P450 3A4): 3.55 µM (inconclusive) | AC50 (Cytochrome P450 2C9): 6.31 µM (inconclusive)

CCOc1ccc(N(CC(=O)NCC2CCCO2)C(=O)CCC(=O)Nc2nccs2)cc1 (centres undefined)
IC50 [3]: > 47.1 µM (inactive) | EC50 [4]: > 53 µM (inactive)

COc1ccc([N+](=O)[O-])cc1N(CC(=O)NCCCOC(C)C)S(C)(=O)=O
IC50 [3]: > 47.1 µM (inactive) | EC50 [4]: > 53 µM (inactive)

COc1ccc(/C=C2/CC/C(=C\c3ccc(OC)c(OC)c3OC)C2=O)c(OC)c1OC
EC50 [4]: > 53 µM (inactive)

c1ccc(-c2ccccc2OCCN2CCOCC2)cc1
IC50 [2]: 111 µM (active)

CCc1ccc(C2C(C#N)=C(N)C(C#N)(C#N)C3=CCC(C(C)(C)C)CC32)cc1 (centres undefined)
EC50 (Streptococcus): > 150 µM (not active) | EC50 [5]: 4.85 µM (active) | AC50 [1]: > 120 µM (inactive) | EC50 (Streptokinase A): 5.84 µM (active) | EC50 (Protein RecA): 3 µM (active)

COc1ccc(-c2cc(C(=O)O)nc3ccc4ccccc4c23)cc1OC
IC50 [3]: > 47.1 µM (inactive) | EC50 [4]: > 53 µM (inactive)

CC(NC(=O)C1CCCN1S(=O)(=O)c1cccc2nsnc12)c1ccccc1 (centres undefined)
IC50 [3]: > 47.1 µM (inactive) | EC50 [4]: > 53 µM (inactive)

COc1ccc(CN(C(=O)c2ccc(C)cc2)C2CCS(=O)(=O)C2)cc1 (centres undefined)
IC50 [3]: > 47.1 µM (inactive) | EC50 [4]: > 53 µM (inactive)

OCCN1CCN(C(S)=Nc2cccc(C(F)(F)F)c2)CC1
IC50 [2]: 126 µM (active)

O=C(CSCc1ccccc1)Nc1cc([N+](=O)[O-])ccc1F
IC50 [3]: > 47.1 µM (inactive) | EC50 [4]: > 53 µM (inactive)

CCCCC/C=C\C[C@H](O)/C=C\c1cccc(C[C@H](O)CCCCO)n1
AC50 (Cytochrome P450 3A4): 6.31 µM (inconclusive) | AC50 (Cytochrome P450 2C9): 20 µM (inconclusive)

COC(=O)c1ccc(CNC(=O)COC(=O)/C=C/c2ccc(O)c(OC)c2)cc1
IC50 [2]: 44.4 µM (active)

COc1cc(/C=C/C(=O)OCC(=O)N2CCCc3ccccc32)ccc1O
IC50 [2]: 36.1 µM (active)

O=C(NC(C(=O)c1ccccc1)n1cnccc1=O)c1ccccc1 (centres undefined)
AC50 (Cytochrome P450 2C19): 2.82 µM (inconclusive) | AC50 (Cytochrome P450 3A4): 14.1 µM (inconclusive) | AC50 (Cytochrome P450 2C9): 8.91 µM (inconclusive)

CCCCCCCCc1c(O)nc(-n2[nH]c(C)c(CCO)c2=O)[nH]c1=O
AC50 [1]: 47.4 µM (active) | EC50 (Protein RecA): 96.8 µM (active)

Cc1cc(=O)n(CCCc2ccccc2)[nH]1
AC50 [1]: 2.4 µM (active) | EC50 (Protein RecA): 2.23 µM (active)

Cc1nc2ccccc2nc1N/N=C/c1ccc(O)cc1
IC50 [2]: 29.2 µM (active)

COc1cc2oc(-c3ccc(O)cc3)cc(=O)c2c(OC)c1O
IC50 [2]: 18.2 µM (active)
